Source: patent publication US11878975B2, “Substituted indole compounds useful as TLR inhibitors” (BRISTOL-MYERS SQUIBB COMPANY, priority 2017, dated 2024)

Experiments:
Type in all cases: cell-based
[1] = target: T1, human TLR8 (Homo sapiens, UniProt Q9NR97); experiment: TLR8 inhibition reporter assay (HEK-Blue cells, SEAP reporter, R848 stimulation); settings: HEK-Blue cells overexpressing human TLR8, SEAP reporter, R848 15.9 μM
T1 construct: host or cells: HEK-Blue cells
T1 sequence (Q9NR97 27-1041): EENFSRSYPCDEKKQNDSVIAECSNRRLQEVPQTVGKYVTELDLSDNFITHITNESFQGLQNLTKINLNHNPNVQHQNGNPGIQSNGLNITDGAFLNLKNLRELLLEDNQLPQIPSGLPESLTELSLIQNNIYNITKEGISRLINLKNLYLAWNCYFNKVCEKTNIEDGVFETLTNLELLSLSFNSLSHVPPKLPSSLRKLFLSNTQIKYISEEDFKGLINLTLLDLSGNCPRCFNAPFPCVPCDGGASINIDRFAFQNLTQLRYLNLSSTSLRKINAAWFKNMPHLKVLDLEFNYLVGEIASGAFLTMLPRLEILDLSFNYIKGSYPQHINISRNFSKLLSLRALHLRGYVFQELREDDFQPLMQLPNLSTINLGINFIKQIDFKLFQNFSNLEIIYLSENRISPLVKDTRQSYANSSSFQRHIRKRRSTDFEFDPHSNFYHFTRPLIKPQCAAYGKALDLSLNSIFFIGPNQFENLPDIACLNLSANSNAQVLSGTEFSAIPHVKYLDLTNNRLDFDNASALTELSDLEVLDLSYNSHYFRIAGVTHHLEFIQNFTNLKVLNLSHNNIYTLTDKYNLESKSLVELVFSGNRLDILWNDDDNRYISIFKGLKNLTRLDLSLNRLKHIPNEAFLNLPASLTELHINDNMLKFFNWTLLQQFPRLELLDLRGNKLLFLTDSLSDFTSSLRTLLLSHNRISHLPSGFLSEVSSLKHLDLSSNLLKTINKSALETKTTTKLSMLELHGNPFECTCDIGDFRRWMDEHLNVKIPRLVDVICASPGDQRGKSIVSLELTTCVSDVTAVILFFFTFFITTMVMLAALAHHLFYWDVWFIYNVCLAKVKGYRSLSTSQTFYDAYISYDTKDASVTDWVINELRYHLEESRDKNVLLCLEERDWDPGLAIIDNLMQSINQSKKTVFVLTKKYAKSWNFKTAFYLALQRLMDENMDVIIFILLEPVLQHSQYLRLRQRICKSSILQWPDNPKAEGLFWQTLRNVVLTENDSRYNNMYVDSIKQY
Procedure, shortened: (§1)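 Ligand levels: TLR7 gardiquimod 7.5 μM, TLR8 R848 15.9 μM, TLR9 ODN2006 5 nM, added after 30 min room-temperature compound pre-incubation at 0.05 nM-50 μM. Reporter SEAP read with HEK-Blue Detection reagent after 22 h, 37° C. Inhibition expressed as % reduction relative to agonist-plus-DMSO and known-inhibitor controls.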

[2] = target: T2, human TLR7 (Homo sapiens, UniProt Q9NYK1); experiment: TLR7 inhibition reporter assay (HEK-Blue cells, SEAP reporter, gardiquimod stimulation); settings: HEK-Blue cells overexpressing human TLR7, SEAP reporter, gardiquimod 7.5 μM
T2 construct: host or cells: HEK-Blue cells
T2 sequence (Q9NYK1 27-1049): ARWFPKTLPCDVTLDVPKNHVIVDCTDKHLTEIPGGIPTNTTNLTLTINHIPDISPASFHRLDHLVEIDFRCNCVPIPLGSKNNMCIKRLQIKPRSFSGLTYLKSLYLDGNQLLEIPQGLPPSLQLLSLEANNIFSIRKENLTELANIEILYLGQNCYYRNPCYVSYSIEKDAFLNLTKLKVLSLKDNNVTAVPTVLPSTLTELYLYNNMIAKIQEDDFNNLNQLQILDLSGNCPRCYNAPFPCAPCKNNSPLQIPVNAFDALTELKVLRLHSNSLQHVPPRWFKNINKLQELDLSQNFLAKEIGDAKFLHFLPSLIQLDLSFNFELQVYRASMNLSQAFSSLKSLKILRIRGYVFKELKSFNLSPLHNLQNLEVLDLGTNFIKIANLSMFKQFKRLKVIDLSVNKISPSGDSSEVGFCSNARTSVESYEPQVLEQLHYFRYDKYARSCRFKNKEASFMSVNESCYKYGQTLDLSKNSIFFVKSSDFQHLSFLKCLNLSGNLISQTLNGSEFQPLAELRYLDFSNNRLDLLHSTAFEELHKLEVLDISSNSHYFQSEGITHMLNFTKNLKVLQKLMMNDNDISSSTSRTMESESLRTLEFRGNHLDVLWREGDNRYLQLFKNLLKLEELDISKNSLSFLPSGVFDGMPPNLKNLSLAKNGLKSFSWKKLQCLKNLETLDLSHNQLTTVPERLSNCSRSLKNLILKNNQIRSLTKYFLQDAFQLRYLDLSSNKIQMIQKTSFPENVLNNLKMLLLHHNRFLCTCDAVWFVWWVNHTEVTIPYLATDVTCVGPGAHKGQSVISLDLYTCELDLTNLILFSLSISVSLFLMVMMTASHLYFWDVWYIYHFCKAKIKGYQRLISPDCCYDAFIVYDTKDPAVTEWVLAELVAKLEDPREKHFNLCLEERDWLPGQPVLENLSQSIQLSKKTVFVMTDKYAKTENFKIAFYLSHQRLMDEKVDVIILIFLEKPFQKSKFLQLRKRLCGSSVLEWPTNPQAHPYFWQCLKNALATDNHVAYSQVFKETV
Procedure, shortened: as §1

[3] = target: T3, human TLR9 (Homo sapiens, UniProt Q9NR96); experiment: TLR9 inhibition reporter assay (HEK-Blue cells, SEAP reporter, ODN2006 stimulation); settings: HEK-Blue cells overexpressing human TLR9, SEAP reporter, ODN2006 5 nM
T3 construct: host or cells: HEK-Blue cells
T3 sequence (Q9NR96 26-1032): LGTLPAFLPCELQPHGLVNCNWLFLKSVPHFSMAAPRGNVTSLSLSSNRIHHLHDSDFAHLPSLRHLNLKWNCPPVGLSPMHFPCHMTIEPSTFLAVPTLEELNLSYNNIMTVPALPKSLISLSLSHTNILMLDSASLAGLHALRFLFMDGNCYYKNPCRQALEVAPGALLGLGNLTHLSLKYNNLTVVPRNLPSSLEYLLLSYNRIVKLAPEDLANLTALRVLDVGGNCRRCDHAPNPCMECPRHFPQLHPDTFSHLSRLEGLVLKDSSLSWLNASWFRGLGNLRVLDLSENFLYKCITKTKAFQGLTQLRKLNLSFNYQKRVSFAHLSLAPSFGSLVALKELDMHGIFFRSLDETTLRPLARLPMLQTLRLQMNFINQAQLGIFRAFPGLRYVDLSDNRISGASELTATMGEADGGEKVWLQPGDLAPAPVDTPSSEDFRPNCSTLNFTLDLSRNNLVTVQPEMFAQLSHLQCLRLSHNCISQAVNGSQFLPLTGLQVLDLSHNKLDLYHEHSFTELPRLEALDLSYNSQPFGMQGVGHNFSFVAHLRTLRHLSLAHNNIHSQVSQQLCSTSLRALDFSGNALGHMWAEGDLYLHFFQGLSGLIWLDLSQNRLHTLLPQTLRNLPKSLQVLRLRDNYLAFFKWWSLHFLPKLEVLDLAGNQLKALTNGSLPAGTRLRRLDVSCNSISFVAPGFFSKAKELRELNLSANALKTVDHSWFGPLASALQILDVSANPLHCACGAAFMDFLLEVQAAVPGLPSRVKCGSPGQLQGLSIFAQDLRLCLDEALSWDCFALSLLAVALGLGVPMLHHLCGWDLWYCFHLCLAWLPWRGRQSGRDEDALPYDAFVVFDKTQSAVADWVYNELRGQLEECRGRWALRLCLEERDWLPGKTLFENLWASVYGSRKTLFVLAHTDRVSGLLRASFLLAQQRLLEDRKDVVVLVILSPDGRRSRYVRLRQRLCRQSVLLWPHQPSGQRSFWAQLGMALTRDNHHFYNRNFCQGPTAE
Procedure, shortened: as §1

SMILES | IC50 [1] | IC50 [2] | IC50 [3]
Cc1cc(-c2[nH]c3ccc(CCN4CCCC(F)(F)C4)cc3c2C(C)C)cn(C)c1=O [Example 404] | 31 nM | 50 nM | > 50000 nM
Cc1cc(-c2[nH]c3ccc(C4CN(C(=O)CN(C)C)CCO4)cc3c2C(C)C)cc(C)n1 (stereo not drawn) [Example 335] | 12 nM | 5 nM | 729 nM
COc1cc(-c2[nH]c3ccc(C4CCC(N)CC4)cc3c2C(C)C)cn2ncnc12 (single isomer, unassigned) [Example 2, 4-(3-isopropyl-2-(8-methoxy-[1,2,4]triazolo[1,5-a]pyridin-6-yl)-1H-indol-5-yl) cyclohexanamine] | 1.1 nM | 0.37 nM | 3420 nM
CCc1c(-c2ccnc(C)c2)[nH]c2ccc(CNC(=O)OCC3CCNCC3)cc12 [Example 449] | 228 nM | 1600 nM | 480 nM
Cc1c(-c2[nH]c3ccc(C4CN(C)C4)cc3c2C(C)C)cn2ncnc2c1C [Example 547] | 0.67 nM | 0.37 nM | 4550 nM
COc1cc(-c2[nH]c3ccc(C4CCC(N(C)CC(F)F)CC4)cc3c2C(C)C)cn2ncnc12 (stereo not drawn) [Example 81] | 104 nM | 17 nM | 25500 nM
CCCN1CC(c2ccc3[nH]c(-c4cn5cnnc5c(C)c4C)c(C(C)C)c3c2)C1 [Example 546] | 5.8 nM | 4 nM | 3870 nM
Cc1cc(-c2[nH]c3ccc(C4CCC(O)CC4)cc3c2C(C)C)cc(C)n1 (single isomer, unassigned) [Example 171, 4-(2-(2,6-dimethylpyridin-4-yl)-3-isopropyl-1H-indol-5-yl)cyclohexanol] | 212 nM | 27 nM | > 50000 nM
Cc1cc(-c2[nH]c3ccc(C4CN(CC(N)=O)CCO4)cc3c2C(C)C)cc(C)n1 (stereo not drawn) [Example 327] | 48 nM | 54 nM | > 50000 nM
Cc1cc(-c2[nH]c3ccc(C4CCCN(C(=O)[C@@H]5CCN5)C4)cc3c2C(C)C)cc(C)n1 (stereo partly drawn) [Example 220] | 11 nM | 1 nM | 339 nM

More lines, in order of falling IC50 [1], values ahead:

IC50 [1] | IC50 [2] | IC50 [3] | SMILES
345 nM | 56 nM | 43900 nM | Cc1cc(-c2[nH]c3ccc(C4CCCN(C(=O)C5(C)COC5)C4)cc3c2C(C)C)cc(C)n1 (stereo not drawn) [Example 203]
162 nM | 98 nM | 5010 nM | CC(C)c1c(-c2ccnc3[nH]ncc23)[nH]c2ccc(C3CCC(Oc4ccncc4)CC3)cc12 (stereo not drawn) [Example 504]
43 nM | 20 nM | 2210 nM | COc1ccc(-c2[nH]c3ccc(C4CCCN(C(=O)CN(C)C)C4)cc3c2C(C)C)cc1OC (stereo not drawn) [Example 195]
19 nM | 45 nM | 28900 nM | Cc1c(-c2[nH]c3ccc(C4CCC(NC5COC5)CC4)cc3c2C(C)C)cn(C)c(=O)c1C (stereo not drawn) [Example 474]
14 nM | 22 nM | > 50000 nM | Cc1c(-c2[nH]c3ccc(C4CN(CCS(C)(=O)=O)CCO4)cc3c2C(C)C)cn2ncnc2c1C (stereo not drawn) [Example 347]
13 nM | 16 nM | 5370 nM | CCCN1CC(c2ccc3[nH]c(-c4cn(C)c(=O)c(Cl)c4C)c(C(C)C)c3c2)C1 [Example 500]
7 nM | 3 nM | 7310 nM | Cc1c(-c2[nH]c3ccc(C4CN(C(=O)CN(C)C)C4)cc3c2C(C)C)cn2ncnc2c1C [Example 564]
6.3 nM | 1 nM | 2240 nM | COc1cc(-c2[nH]c3ccc(CCC4CN(C(=O)CN(C)C)C4)cc3c2C(C)C)cn2ncnc12 [Example 439]
3.6 nM | 9 nM | 6750 nM | Cc1c(-c2[nH]c3ccc(C4CN(CC(C)(C)O)C4)cc3c2C(C)C)cn2ncnc2c1C [Example 557]
3.5 nM | 2 nM | 767 nM | CNC(=O)CNC1CCC(c2ccc3[nH]c(-c4cc(C)nc(C)c4)c(C(C)C)c3c2)CC1 (single isomer, unassigned) [Example 179, 2-((4-(2-(2,6-dimethylpyridin-4-yl)-3-isopropyl-1H-indol-5-yl)cyclohexyl)amino)-N-methylacetamide]
2.9 nM | 0.55 nM | 600 nM | Cc1cc(-c2[nH]c3ccc(C4CCC(N(C)C)CC4)cc3c2C(C)C)cc(C)n1 (single isomer, unassigned) [Example 53]
1.4 nM | 0.37 nM | 2250 nM | CNCC(=O)NC1CCC(c2ccc3[nH]c(-c4cn5ncnc5c(C)c4C)c(C(C)C)c3c2)CC1 (stereo not drawn) [Example 128, N-(4-(2-(7,8-dimethyl-[1,2,4]triazolo[1,5-a]pyridin-6-yl)-3-isopropyl-1H-indol-5-yl)cyclohexyl)-2-(methylamino)acetamide]
0.58 nM | 0.32 nM | 1590 nM | COc1cc(-c2[nH]c3ccc(C4CCC(N5CC6(COC6)C5)CC4)cc3c2C(C)C)cn2ncnc12 (stereo not drawn) [Example 73]
